This is an account of results in paper PMC5906549, “Cathelicidin-Derived Antimicrobial Peptides Inhibit Zika Virus Through Direct Inactivation and Interferon Pathway” (Frontiers in Immunology, 2018).

What all share (format): cell-based, Zika virus
The subject of experiment [1] is ZIKV strain MR766. The experiment is described as follows: ZIKV virion levels in astrocyte supernatants, plaque-forming assay on Vero cells. As to conditions: human fetal astrocytes; peptide 0.4 to 10 µM pre-treatment; supernatants titrated on Vero cells. How it is done:
(A) Human fetal astrocytes were treated with doses of the selected peptides ranging from 1 to 50 µM. After 24 h, the cultures were washed and treated with same doses of peptides in fresh medium for another 24 h. Cell viability was determined by a colorimetric MTS assay. Results shown are the averages ±SD of experiments performed in triplicate. Data were analyzed by nonlinear regression and assessed the EC50 for each of the antimicrobial peptides. (B–E) Astrocytes were treated with doses of antimicrobial peptides ranging from 0.4 to 10 µM for 2 h then infected with ZIKV at the MOI of 0.5. After 24 h, the cultures were washed and treated with same doses of antimicrobial peptides in fresh medium for another 24 h. At the experimental endpoint, intracellular ZIKV RNA (B) was determined through real-time RT-PCR in total cellular RNA. Data were normalized to GAPDH and presented as fold change (in log scale) compared with ZIKV group. Extracellular ZIKV RNA [(C), in log scale] was determined through real-time RT-PCR using total RNA isolated from cell-free supernatants. ZIKV virion levels (in log scale) were determined by adding cell-free culture supernatants to Vero cells and overlaid with Agar gel in viral PFA (D). Viral plaques were manually counted and calculated as PFU/mL (E). * p < 0.05, ** p < 0.01, and *** p < 0.001, as compared with the ZIKV group without peptide treatment (ANOVA, N = 3).

Experiment [2] has as its system ZIKV strain MR766. The experiment is described as follows: Post-infection peptide treatment of ZIKV-infected human fetal astrocytes (RT-PCR and plaque-forming assay). As to conditions: human fetal astrocytes infected MOI 0.5 for 24 h, then peptide 10 µM for 24 h, N = 4; for Zika virions after post-infection treatment (plaque-forming assay): cell-free supernatants; for ZIKV RNA after post-infection treatment, compared with untreated ZIKV group: normalized to GAPDH. How it is done: Vero cells were plated into 12-well plates at 5 (10^5 cells/well the day before infection). On the day of infection, the monolayers of Vero cells were inoculated with 100 µL of 10-fold serial dilutions of viral stocks and incubated at 37 °C for 1 h. After viral inoculation, medium containing ZIKV particles was removed and 1 ml overlay containing 0.6% molecular biology grade agarose (Agarose Unlimited, Alachua, FL, USA) in Modified Eagle Medium (Gibco) with 2% FBS. Cells were maintained at 37°C in 5% CO2 for 4 days. On day 5, cells were fixed with 4% paraformaldehyde solution in PBS and stained with 1% crystal violet solution in 20% methanol in water. Viral plaques were photographed using a CanonScan 9950F scanner and each plaque was counted as a plaque-forming unit (PFU). Viral titer was calculated as PFU/[volume virus (mL) × (dilution factor)].
Total mRNA was isolated with TRIzol Reagent (Thermo Fisher Scientific) and RNeasy Mini Kit (QIAGEN Inc., Valencia, CA, USA) following the manufacturer’s recommendations. Two real-time RT-PCR methods were used for the current studies. First, SYBR Green-based RT-PCR assay was used to determine intracellular ZIKV RNA in Vero cells. For this assay, reverse transcription was performed using Verso cDNA synthesis Kit (Thermo Fisher Scientific) and 1 µg of total RNA in a 15-µL final volume. The RT-PCR analyses were performed using 7.5-µL SYBR Green PCR Master Mix (Thermo Fisher Scientific) with 0.5-µL cDNA, 1.5-µL H2O, 5.5-µL oligonucleotide primer pairs at 10 µM. Primers used were ZIKV RNA: forward sequence 5-[…]-3, reverse sequence 5-[…]-3; GAPDH: forward sequence 5-[…]-3, reverse sequence 5-GGCTGT […] GG-3. PCR program: 1, 50°C for 2 min; 2, 95°C for 2 min; 3, 95°C for 15 s; 4, specific annealing temperature for 15 s; 5, 72°C for 1 min. Steps 2–4 were repeated 40 times. All samples were amplified in triplicate for analysis. Relative ZIKV RNA levels were determined and standardized with a GAPDH internal control using comparative ΔΔCT method ([35]). Second, TaqMan-based RT-PCR assay was used to determine intracellular ZIKV RNA and other gene expressions in Figures 3–6 and extracellular ZIKV RNA in Figure 3. […] Relative ZIKV mRNA levels were determined and standardized with a GAPDH or 18-s rRNA endogenous control using comparative ΔΔCT method ([35]). All reference genes, including GAPDH, β-actin, and 18-s rRNA, detected identical changes of genes (Figure S1 in Supplementary Material). […] Quantitative genomic RNA from ZIKV (NR-1838DQ, ATCC) was used as a standard to calculate viral copies. […]
Figure 4 Antimicrobial peptides treatment post-infection is still effective in inhibiting Zika virus (ZIKV) infection. […] (B–D) At 24-h post-antimicrobial peptide treatment, RNA was isolated from cells and ZIKV RNA was determined through real-time RT-PCR. […]

Experiment [3] deals with ZIKV strain MR766. The experiment is described as follows: ZIKV RNA at 2-h post-infection in pre-treated human fetal astrocytes (early infection / entry). As to conditions: astrocytes treated with AMPs 2 h at 37°C, then ZIKV MOI 0.5 for 2 h; normalized to 18-s rRNA; N = 3. On the procedure: Total mRNA was isolated with TRIzol Reagent (Thermo Fisher Scientific) and RNeasy Mini Kit (QIAGEN Inc., Valencia, CA, USA) following the manufacturer’s recommendations. Two real-time RT-PCR methods were used for the current studies. First, SYBR Green-based RT-PCR assay was used to determine intracellular ZIKV RNA in Vero cells. For this assay, reverse transcription was performed using Verso cDNA synthesis Kit (Thermo Fisher Scientific) and 1 µg of total RNA in a 15-µL final volume. The RT-PCR analyses were performed using 7.5-µL SYBR Green PCR Master Mix (Thermo Fisher Scientific) with 0.5-µL cDNA, 1.5-µL H2O, 5.5-µL oligonucleotide primer pairs at 10 µM. […] Relative ZIKV RNA levels were determined and standardized with a GAPDH internal control using comparative ΔΔCT method ([35]). […] Relative ZIKV mRNA levels were determined and standardized with a GAPDH or 18-s rRNA endogenous control using comparative ΔΔCT method ([35]). All reference genes, including GAPDH, β-actin, and 18-s rRNA, detected identical changes of genes (Figure S1 in Supplementary Material). […] Quantitative genomic RNA from ZIKV (NR-1838DQ, ATCC) was used as a standard to calculate viral copies. […]
(A) Primary human fetal astrocytes were pre-incubated at 4°C for half an hour and then treated with antimicrobial peptides along with ZIKV infection at the MOI of 0.5 for 2 h. […] ZIKV RNA was determined through real-time RT-PCR.

Peptide text beside a SMILES is read from it.

With `CC[C@H](C)[C@H](NC(=O)[C@H](CCCNC(=N)N)NC(=O)[C@H](CCC(N)=O)NC(=O)[C@@H](NC(=O)[C@@H](NC(=O)[C@H](CCCNC(=N)N)NC(=O)[C@H](CCCCN)NC(=O)[C@H](Cc1ccccc1)NC(=O)CN)[C@@H](C)CC)C(C)C)C(=O)N[C@@H](CCCCN)C(=O)N[C@@H](CC(=O)O)C(=O)N[C@@H](Cc1ccccc1)C(=O)N[C@@H](CC(C)C)C(=O)N[C@@H](CCCNC(=N)N)C(=O)N[C@@H](CC(N)=O)C(=O)N[C@@H](CC(C)C)C(=O)N[C@H](C(N)=O)C(C)C` [GF-17] (H-GFKRIVQRIKDFLRNLV-NH2; N-terminus and C-terminus assumed), the “ZIKV virions (PFU/mL) in supernatants” value in the experiment on ZIKV strain MR766 [1] was “ZIKV virions were reduced”. In addition, in the experiment with ZIKV strain MR766 [2], the “Zika virions after post-infection treatment (plaque-forming assay)” value is recorded as “fewer virions” and the “ZIKV RNA after post-infection treatment, compared with untreated ZIKV group” value is reported as “significantly decreased ZIKV RNA”. For the same compound, the “ZIKV RNA at 2-h post-infection compared with untreated ZIKV group” value in the experiment with ZIKV strain MR766 [3] is on record as “significantly decreased ZIKV RNA”.

For `CC[C@H](C)[C@H](NC(=O)[C@H](CCCCN)NC(=O)[C@H](CCCCN)NC(=O)[C@H](Cc1ccccc1)NC(=O)[C@H](CC(C)C)NC(=O)[C@H](CCCCN)NC(=O)[C@H](CCCCN)NC(=O)[C@H](Cc1ccccc1)NC(=O)[C@H](CCCCN)NC(=O)[C@H](CCCCN)NC(=O)[C@H](CCCNC(=N)N)NC(=O)[C@H](Cc1ccccc1)NC(=O)[C@H](CCCNC(=N)N)NC(=O)[C@H](CCCCN)NC(=O)[C@H](Cc1ccccc1)NC(=O)[C@H](CCCNC(=N)N)NC(=O)CN)C(=O)N[C@@H](CO)C(=O)O` [BMAP-18] (H-GRFKRFRKKFKKLFKKIS-OH; N-terminus and C-terminus assumed), in the experiment on ZIKV strain MR766 [1], the “ZIKV virions (PFU/mL) in supernatants” value is listed as “ZIKV virions were reduced”. Moreover, in the experiment with ZIKV strain MR766 [2], the “Zika virions after post-infection treatment (plaque-forming assay)” value is “fewer virions” and the “ZIKV RNA after post-infection treatment, compared with untreated ZIKV group” value is reported as “trended downward; however, the difference was not significant”. Also, the “ZIKV RNA at 2-h post-infection compared with untreated ZIKV group” value in the experiment on ZIKV strain MR766 [3] is reported as “significantly decreased ZIKV RNA”.
